{"source": "patent US20030198690A1", "about": "“Device and method for treating restenosis” (Medical Research Fund of Tel Aviv Sourasky Medical Center, priority 2002, published 2003)", "key": {"[1]": {"system": "Wistar rats", "test": "Balloon dilation carotid injury in rats, morphometric and immunohistochemical analysis of arteries", "assay_type": "in vivo", "procedure": "(§1) Carotid injury was induced in Wistar rats by balloon dilation according to a conventional model (Clowes A W, Reidy M A, Clowes M M. Kinetic of cellular proliferation after arterial injury. Lab Invest 1983; 49:327-334). Rats were then injected daily i.p. with either zinc (at a concentration of 5 mg/kg) or saline (control) for 2 weeks until sacrifice. Arteries were taken for morphometeric and immunohistochemical analysis."}, "[2]": {"test": "Levels of serum zinc in treated rats", "assay_type": "in vivo, Wistar rats", "settings": "zinc 5 mg/kg i.p. daily for 2 weeks; p<0.01 vs control rats", "procedure": "as §1\nLevels of serum zinc were elevated in the zinc-treated rats (248.2±19.4 pg/ml) as compared to the control rats (136.8±7.2 pg/ml; p<0.01)."}}, "data": [{"compound": "[Zn]", "note": "[zinc]", "values": [{"measurement": "inflammatory cell infiltrate (NF-κB and iNOS positive cells)", "setting": "[1]; immunohistochemical staining of arteries, zinc 5 mg/kg i.p. daily for 2 weeks", "result": "a reduction was evident"}, {"measurement": "external elastic lamina size", "setting": "[1]; zinc 5 mg/kg i.p. daily for 2 weeks after carotid balloon injury", "result": "without influencing"}, {"measurement": "neointimal area", "setting": "[1]; zinc 5 mg/kg i.p. daily for 2 weeks after carotid balloon injury, FIG. 1", "result": "reduced"}, {"measurement": "neointimal/medial ratio", "setting": "[1]; zinc 5 mg/kg i.p. daily for 2 weeks after carotid balloon injury, FIG. 2", "result": "reduced"}, {"measurement": "Levels of serum zinc", "setting": "[2]", "result": "0.2482 ± 0.0194", "unit": "ng/mL"}]}]}
